In brackets after ≈: the same amount, converted by molar mass. Several values for one entry are separate records, joined by “and”; a condition that tells them apart may be missing. Equal entries are not always repeated. Where two headings read alike, the source gives them in different places.
How the values were obtained:
[1] = tested on: C. albicans planktonic yeast; assay: Minimal inhibitory concentration, broth microdilution (CLSI M27-A3 adapted); format: cell-based, Candida albicans ATCC 28367
Method: Stock solutions of lichen compounds were prepared in DMSO at 10 mg/ml and were used for all the experiments performed. Their antifungal minimum inhibitory concentrations (MICs) were determined by a broth microdilution method (CLSI reference M27-A3 micromethod adapted protocol) as previously described ([Millot et al., 2017]). Briefly, an inoculum of C. albicans ATCC® 28367™ (American Type Culture Collection) adjusted to 0.5 Mac Farland absorbance was diluted 1:1,000 in RPMI-MOPS. A volume of this yeast culture was added to an equivalent volume of compound solution at several concentrations (100 to 0.048 μg/ml final) in 96-well microtiter plates. Controls as untreated yeasts (negative control), yeasts treated with 2% DMSO and yeasts treated with fluconazole (positive control) were included. After 24 and 48 h incubation at 37°C without shaking, the MICs were determined. All tests were performed in duplicate in at least two separate experiments.

Candida krusei biofilm = tested on: Candida krusei biofilm; parameters: method as in Kvasnickova et al., 2015; conditions: at 300 μg/ml, 24-h biofilm; ref Kvasnickova et al., 2015; cited from earlier work
[2] = tested on: C. albicans (ATCC: 90028) biofilm; parameters: method as in Nithyanand et al., 2015b; conditions: at 100 µg/ml, added before the adhesion step, ring test; ref Nithyanand et al., 2015b; cited from earlier work
[3] = tested on: Candida albicans biofilms on the maturation phase; assay: Anti-maturation test (XTT), compounds added after 2 h adherence; format: cell-based, Candida albicans ATCC 28367; conditions: for IC50: Candida albicans
Method: (§1) The anti-maturation and/or anti-biofilm activities of lichen compounds were assessed as previously described ([Millot et al., 2017]). Briefly, C. albicans (ATCC® 28367™) cultures were prepared at a final concentration of 1 × 10^7 cells/ml in yeast nitrogen base medium (Difco, Detroit, MI), supplemented with 50 mM glucose (Sigma, St Louis, MO) (YNB-Glc) from a preculture incubated overnight at 37°C without shaking.
(§2) A total of 200 µl of yeast culture was added to each well of untreated 96-well tissue culture plates. The plates were then incubated at 37°C for 2 h for the anti-maturation test and for 24 h for the anti-biofilm test. After aspiration of spent media and free-floating microorganisms, 250 μl per well of YNB-Glucose and 50 μl lichen compound samples obtained by serial twofold dilutions of each stock solution over the final range 200 to 0.097 μg/ml or 200 to 6.25 μg/ml were added to wells. Controls were also present: untreated yeasts (negative control) and yeasts treated with 2% DMSO. After 24 and/or 48 h of incubation at 37°C followed by aspiration of spent media and free-floating microorganisms, the wells were washed with phosphate-buffered saline (PBS) and observed under an inverted optical microscope (IX51® inverted microscope, Olympus). Biofilms were quantified using a metabolic assay based on the reduction of a tetrazolium salt (XTT) and absorbance measurements at 492 nm (microplate reader LP400; Sanofi Diagnostics Pasteur) ([Cocuaud, 2005]; [Dalleau et al., 2008]). The percent inhibition was determined from the absorbance values compared to the mean absorbance value obtained for untreated wells (100%).
(§3) Concentrations of lichen products inhibiting 50% of biofilms were determined for each tested sample by constructing a dose–response curve and selecting the closest tested concentration value above or equal to 50% inhibition. All anti-maturation and anti-biofilm tests were performed at least in triplicate in at least two separate experiments. The lichen compounds with MMIC50 or/and MBIC50 less than 100 μg/ml were considered as potentially useful.
(§4) Anti-maturation and anti-biofilm tests were performed with C. albicans ATCC® 28367™, as previously described, in 96-well microplates with evernic acid alone, cyclodextrin alone, and evernic acid included in cyclodextrin at over 50 to 1.5 µM final range of evernic acid (serial twofold dilution).

[4] = tested on: 24-h C. parapsilosis biofilms; parameters: method as in Pires et al., 2012; conditions: 24-h biofilm, vs untreated controls; ref Pires et al., 2012; cited from earlier work
[5] = tested on: 24-h Candida orthopsilosis biofilms; parameters: method as in Pires et al., 2012; conditions: 24-h biofilm, vs untreated controls; ref Pires et al., 2012; cited from earlier work
C. albicans = tested on: C. albicans; parameters: method as in Nithyanand et al., 2015b; conditions: at 100 µg/ml; ref Nithyanand et al., 2015b; cited from earlier work
[6] = tested on: Candida albicans preformed 24-h-old biofilm; assay: Anti-biofilm test (XTT) on preformed 24-h-old biofilm; format: cell-based, Candida albicans ATCC 28367
Method: as §1, §2, §3, §4

48-h C. albicans biofilm = tested on: 48-h C. albicans biofilm; parameters: method as in Peralta et al., 2016; conditions: 4 μg/ml, ref Peralta et al., 2016, cited from earlier work
[7] = tested on: Candida parapsilosis biofilm; parameters: method as in Kvasnickova et al., 2015; conditions: at 300 μg/ml, 24-h biofilm; ref Kvasnickova et al., 2015; cited from earlier work
[8] = parameters: method as in Shcherbakova et al. (2021); conditions: ref Shcherbakova et al. (2021); cited from earlier work
[9] = tested on: HeLa human epithelial cervix cells; assay: Growth inhibition of HeLa cells (MTT, 72 h); format: cell-based; conditions: for Growth inhibition of HeLa cells (% inhibition): 72 h
Method: HeLa human epithelial cervix cells were grown as monolayers at 37°C in a 5% CO2–95% air humidified atmosphere in RPMI supplemented with 10% FBS and […] gentamycin and streptomycin. Cells (2,000 cells/well) were seeded into each well of 96-well plates. […] The final DMSO concentration was less than 1% and tested as a negative control. Cell viability at 72 h was studied using the MTT assay. Then, 5 µl of MTT (10 mg/ml) was added to each well, and the plates were incubated for 4 h. The medium was then removed by aspiration, and 200 µl DMSO was added to each well. Proliferation was determined spectrophotometrically by measuring the absorbance at 540 nm. The percent of growth inhibition (%GI) was calculated as follows: %GI = [(DO (ʎ540 nm) control - DO (ʎ540 nm) treated)/DO (ʎ540 nm) control] * 100. All experiments were performed in duplicate with at least two replicate experiments.

red blood cells = assay: Hemolysis test; format: cell-based; conditions: at 100 µg/ml, 1 h
Method: Then, 480 µl of each dilution was added to 20 µl of healthy red blood cells (Poitiers University Hospital, Hematology Department) in microtubes (final hematocrit = 4%). Some microtubes were reserved for controls: untreated red blood cells (negative control), cells treated with sterile distilled water (positive control = 100% hemolysis), and cells treated with 1% DMSO. After 1 h of incubation at 37°C, the tubes were centrifuged for 10 s at 14,000 g (A14 centrifuge Jouan) twice, and 200 µl of each supernatant was transferred into 96-well microtiter plates for colorimetric measurements at 450 nm (microplate reader LP400; Sanofi Diagnostics Pasteur) in order to determine the hemolysis percentages of each compound ([Evans et al., 2013]). All tests were performed in duplicate (at least two separate experiments).

[10] = 24 h of treatment, read-out: Anti-maturation activity MMIC50
[11] = 48 h of treatment, read-out: Anti-maturation activity MMIC50
[12] = Candida albicans, 24 h, 24 h of treatment, 24-h-old biofilm, read-out: Anti-biofilm activity MBIC50
[13] = Candida albicans, 48 h, 48 h of treatment, 24-h-old biofilm, read-out: Anti-biofilm activity MBIC50

| SMILES | IC50 [3, 10] | IC50 [3, 11] | IC50 [6, 12] | IC50 [6, 13] | Hemolytic activity (%) (red blood cells) | further results |
| --- | --- | --- | --- | --- | --- | --- |
| CC(=O)C1=C(O)C=C2Oc3c(C(C)=O)c(O)c(C)c(O)c3C2(C)C1=O (stereo in doubt) [Compound 11, (+)-usnic acid] | – | – | – | – | – | MIC [1]: > 100 µg/mL; Anti-biofilm properties (Candida krusei biofilm): no anti-biofilm properties; Biofilm inhibition [2]: 65%; IC50 ([3]; 24 h, read-out: Anti-maturation activity MMIC50): > 200 µg/mL; IC50 ([3]; 48 h, read-out: Anti-maturation activity MMIC50): > 200 µg/mL; Anti-maturation activity ([3]; at 200 µg/ml): not active; Concentration inducing 80% inhibition of cell growth [4]: 62.5 µg/mL; Concentration inducing 80% inhibition of cell growth [5]: 31.2 µg/mL; Antifungal activity (C. albicans): no antifungal activity; Anti-biofilm activity ([6]; 24-h-old biofilm, in words): no anti-biofilm activity; IC50 ([6]; Candida albicans, 24 h, read-out: Anti-biofilm activity MBIC50): > 200 µg/mL; IC50 ([6]; Candida albicans, 48 h, read-out: Anti-biofilm activity MBIC50): > 200 µg/mL; IC50 ([6]; Candida albicans, read-out: MBIC50): ≥ 100 µg/mL; Biofilm biomass (48-h C. albicans biofilm; control 18.39): 4.91 μm^3/μm^2; Inhibition of biofilm biomass (48-h C. albicans biofilm): 73.3%; Reduction of biofilm thickness (48-h C. albicans biofilm): 76.8%; Anti-biofilm properties [7]: no anti-biofilm properties |
| COc1cc(C)c(C(=O)Oc2cc(C)c(C(=O)O)c(O)c2)c(O)c1 [Compound 1, Evernic acid] | 100 µg/mL (≈ 301 µM) | 6.25 µg/mL and 18 µM | 200 µg/mL | ≤ 12.5 µg/mL | 0% | Predicted cytotoxicity risks [8]: absence of mutagenic, tumorigenic, reproductive, and irritant effects; Growth inhibition of HeLa cells (% inhibition) ([9]; at 6.125 µg/ml): 22.2 ± 2.8%; Growth inhibition of HeLa cells (% inhibition) ([9]; at 100 µg/ml): more than 70%; Inhibition of HeLa cell growth ([9]; at the lowest tested / minimal active concentration (12.5 or 6.25 µg/ml)): 22%; Anti-biofilm activity MBIC50 ([6]; 48 h of treatment, 24-h-old biofilm): 12.5 µg/mL; IC50 ([6]; 48 h of treatment, 24-h-old biofilm, listed as Evernic acid, read-out: Anti-biofilm activity MBIC50): < 12.5 µM; IC50 ([6]; 48 h of treatment, 24-h-old biofilm, listed as evernic acid, read-out: Anti-biofilm activity MBIC50): 37 µM; IC50 ([6]; 48 h of treatment, 24-h-old biofilm, read-out: Anti-biofilm activity MBIC50): 37.5 µM; IC50 ([6]; Candida albicans, 48 h, cyclodextrin experiment, 1.5 to 50 µM, 48 h of contact, read-out: Concentration giving 50% inhibition of the biofilm): 12.5 µM; Hemolytic activity (%) (red blood cells; listed as Evernic acid): no hemolytic activity; Hemolytic activity (%) (red blood cells; listed as evernic acid): no effect at all |
| COc1cc(C)c(C(=O)Oc2cc(C)c(C(=O)O)c(O)c2C)c(O)c1C(=O)O [Compound 2, Squamatic acid] | 50 µg/mL and 128 µM | 12.5 µg/mL and 32 µM | > 200 µg/mL | > 200 µg/mL | 0.4 ± 0.01% | Growth inhibition of HeLa cells (% inhibition) ([9]; at 12.5 µg/ml): 14.8 ± 1.6% |
| COc1cc(C)c(C(=O)Oc2c(C)c(C(=O)O)c(O)c(C=O)c2O)c(O)c1C(=O)O [Compound 3, thamnolic acid] | 50 µg/mL and 120 µM | 12.5 µg/mL and 30 µM | > 200 µg/mL | > 200 µg/mL | 4.0 ± 0.02% | Growth inhibition of HeLa cells (% inhibition) ([9]; at 12.5 µg/ml): 11.0 ± 0.9% |
| COC(=O)c1c(C)cc(OC(=O)c2c(C)cc(O)c(C=O)c2O)c(C)c1O [Compound 4, atranorin] | > 200 µg/mL | > 200 µg/mL | > 200 µg/mL | > 200 µg/mL | 0% | IC50 ([3]; incubation time not stated, read-out: MMIC50 (anti-maturation IC50)): ≥ 100 µg/mL; Growth inhibition of HeLa cells (% inhibition) ([9]; at 100 µg/ml): 84.5 ± 6.8% |

More lines, main results first:

| IC50 [3, 10] | IC50 [3, 11] | IC50 [6, 12] | IC50 [6, 13] | SMILES | Hemolytic activity (%) (red blood cells) | further results |
| --- | --- | --- | --- | --- | --- | --- |
| > 200 µg/mL | 100 µg/mL (≈ 213 µM) | > 200 µg/mL | > 200 µg/mL | Cc1cc(OC(=O)c2c(C)cc(OC(=O)c3c(C)cc(O)cc3O)cc2O)cc(O)c1C(=O)O [Compound 5, gyrophoric acid] | 0.5 ± 0.27% | Growth inhibition of HeLa cells (% inhibition) ([9]; at 100 µg/ml): 70.0 ± 2.3% |
| > 200 µg/mL | > 200 µg/mL | > 200 µg/mL | > 200 µg/mL | Cc1cc(O)c(C=O)c2c1C(=O)Oc1c(C)c(O)c3c(c1O2)C(O)OC3=O (stereo not shown) [Compound 6, norstictic acid] | – | – |
| – | – | > 200 µg/mL | > 200 µg/mL | Cc1cc(O)c(C=O)c2c1C(=O)Oc1c(CO)c(O)c3c(c1O2)[C@@H](O)OC3=O [Compound 7, salazinic acid] | – | – |
| 200 µg/mL (≈ 518 µM) | 200 µg/mL (≈ 518 µM) | > 200 µg/mL | > 200 µg/mL | COc1cc(C)c2c(c1C=O)Oc1c(c(C)c(O)c3c1C(O)OC3=O)OC2=O (stereo not shown) [Compound 8, stictic acid] | – | – |
| > 200 µg/mL | > 200 µg/mL | > 200 µg/mL | > 200 µg/mL | CCCCCC(=O)Cc1cc(O)cc2c1C(=O)Oc1cc(O)c(C(=O)O)c(CCCCC)c1O2 [Compound 9, physodic acid] | – | – |
| > 200 µg/mL | 100 µg/mL (≈ 206 µM) | > 200 µg/mL | 100 µg/mL | CCCCCC(=O)Cc1cc(O)c(O)c2c1C(=O)Oc1cc(O)c(C(=O)O)c(CCCCC)c1O2 [Compound 10, 3-hydroxyphysodic acid] | – | – |

— article PMC8481799, “Lichen Polyphenolic Compounds for the Eradication of Candida albicans Biofilms” (Frontiers in Cellular and Infection Microbiology, 2021)
